Experimental data as given in ChEMBL document CHEMBL1130596, “A high affinity, mu-opioid receptor-selective enkephalin analogue lacking an N-terminal tyrosine” (Bioorg Med Chem Lett, 1998).
Starred links: 1 amine or outer side, 2 acyl side, 3 side chain; linkers in the order of their positions; H or OH if unused. Positions of bridges follow the written chain, without caps; N, C: chain ends. Non-standard residues stand in square brackets, D forms with d. Residues, ends and D or L forms follow the SMILES beside them. dPen = CC(C)(S)[C@@H](N)C(=O)O; Pen = CC(C)(S)[C@H](N)C(=O)O; CH2CH2 = C(C[*:2])[*:1]

Assays:
[1] = biological target: Mu-type opioid receptor (Cavia porcellus, UniProt P97266); experiment: Binding affinity against mu opioid receptor
[2] = biological target: Opioid receptors; mu/kappa/delta (Homo sapiens, UniProt P41145+P41143+P35372); experiment: Agonistic activity tested in vitro in guinea pig ileum opioid; type: functional, tissue-based, Cavia porcellus; settings: target entry is the homologue from another species
[3] = Binding affinity against Opioid receptor delta 1

Sequence of Mu-type opioid receptor (P97266 whole entry): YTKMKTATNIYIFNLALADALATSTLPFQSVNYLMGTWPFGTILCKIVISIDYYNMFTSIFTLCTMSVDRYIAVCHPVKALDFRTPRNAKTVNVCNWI

SMILES	Ki [1] [pM]	IC50 [2] [pM]	Ki [3] [pM]
CC1(C)SCCSC[C@@H](NC(=O)[C@@H](N)Cc2ccccc2)C(=O)N[C@@H](Cc2ccccc2)C(=O)N[C@H]1C(N)=O	1360	9100	
CC1(C)SSC[C@@H](NC(=O)[C@@H](N)Cc2ccccc2)C(=O)N[C@@H](Cc2ccccc2)C(=O)N[C@H]1C(=O)O	610000		
CC1(C)SSC[C@H](NC(=O)[C@@H](N)Cc2ccc(O)cc2)C(=O)N[C@@H](Cc2ccccc2)C(=O)N[C@@H]1C(=O)O (H-YCF[Pen]-OH; disulfide 2-4)			740
CC1(C)SCCSC[C@@H](NC(=O)[C@@H](N)Cc2ccc(O)cc2)C(=O)N[C@@H](Cc2ccccc2)C(=O)N[C@H]1C(N)=O (H-Y[dC]F[dPen]-NH2; linker 2-4 via CH2CH2)	290		
C[C@@H](NC(=O)[C@@H](N)Cc1ccc(O)cc1)C(=O)NCC(=O)N(C)[C@@H](Cc1ccccc1)C(=O)NCCO [DAMGO]	990		
